From US20240025849A1 (MAX DELBRÜCK-CENTRUM FÜR MOLEKULARE MEDIZIN IN DER …, priority 2020, published 2024)
Entries after “also recorded” stand apart in the source; their conditions may differ.

Assays:
iNOS mRNA = assay: Quantitative PCR of iNOS mRNA in microglia; format: cell-based, mouse; conditions: 2.5 μM C1
Experimental: Quantitative PCR. The same stimulation protocol as for the Flow cytometry-based phagocytosis assay was applied. Cells were seeded overnight, treated with 2.5 μM C1 in DMSO, 125×10^−5 v/v DMSO respectively, or plain medium only for 1 hour, followed by an additional stimulation with 1 μg/ml LPS for 24 hours. Total RNA was isolated using the RNeasy Plus Mini Kit (Qiagen, Hilden, Germany). On-column DNase 1 (Qiagen) digestion was performed and total RNA was eluted in RNase-free water. RNA yield was measured using a Nanodrop 1000 (Thermo Fisher Scientific) spectrophotometer and quality was assessed using an Agilent 2100 Bioanalyzer (Agilent, Santa Clara, USA). Samples were stored at −80° C. until further use. First-strand cDNA synthesis was done with the SuperScript II reverse transcriptase (Thermo Fisher Scientific) using oligo-dT primers12-18 (Invitrogen) according to the manufacturer's instructions. Quantitative real-time PCR (qRT PCR) reactions were performed in a 7500 Fast Real-Time thermocycler (Thermo Fisher Scientific) using the SYBR Select Master Mix (Thermo Fisher Scientific) according to the manufacturer's instructions. cDNA input ranged between 1 and 5 ng/μl of total RNA transcribed into cDNA. The expression results were normalized to the expression of PActin of the same sample.

[1] = tested on: primary cultured neonatal microglia; assay: PolyIC induced NO release, Griess assay; format: cell-based, mouse; conditions: for NO concentration, % of stimulated control: 100 μg/ml PolyIC 24 hours
Experimental: Primary cultured neonatal microglia. For preparation of cultured neonatal microglia, P0-P3 mice were used. 10 brains were extracted, meninges and cerebellum were removed and put on ice with Hank's balanced salt solution (HBSS). The dissected brains were washed 3 times before adding 400 μL trypsin (0.1 mg/L) and DNAse (5 μg/L) in phosphate buffered saline (PBS). After 2 min of incubation with this solution, the reaction was blocked by adding plain medium. After removal of the medium, 1 mg DNAse was added and the cells were mechanically dissociated, with a Pasteur pipette followed by a glass pipette. The cells were centrifuged for 10 min at 129 g at 4° C. The supernatant was discarded. The pellet was resuspended in plain medium and plated (2.5 brains/flask) in Poly-L-Lysine coated flasks. The cells were washed after 2 days with PBS and incubated for another 7 days in plain medium. Afterwards the medium was replaced by plain medium with 33% L929 conditioned medium. After 2 days, cells were harvested by shaking them for 30 min at 150 rpm. The supernatant was centrifuged for 10 min at 129 g at 4° C. The cells were plated into a 96 well plate (100 000 cells/well, 200 μL medium per well). This procedure could be repeated 2 times with a 2 day interval.
Griess assay. Cells were seeded according to the protocols described above, after compounds and stimuli were added, 100 μl of supernatant was transferred into a new 96 well plate and 100 μl freshly mixed Griess reagent were added. Griess reagent was composed of reagent A (100 mg Naphthylethylene in 50 ml aqua dest.) and reagent B (1 g Sulfanilamide, […] H3PO4 (85%) in 44 mL aqua dest.) mixed 1:1. The solution was carefully mixed and the absorbance was determined in a microplate reader at a wavelength of 550 nm.
In order to test whether C1 decreases NO release induced by other stimulation agents besides LPS which is mimicking a bacterial infection, the inventors used IFNγ to mimic a Th1 cell response (Yau et al., 2016) and PolyIC to mimic an anti-viral response (Jiang and Pisetsky, 2006). Given that our aim is to determine the compound's effect on already stimulated microglia (LPS, IFNγ, and PolyIC), each individual experiment is normalized to its stimulated control.

nNOS = assay: NOS enzyme activity assay (Eurofins), nNOS; format: biochemical; conditions: C1: 1 nM and 1 μM; 30 min reaction
Experimental: In mammalians NO is produced by the three isoforms of NOS: iNOS, eNOS, and nNOS. To evaluate the direct influence of cl on the different isoforms of NOS, an enzyme activity assay was conducted by Eurofins. C1 was mixed with the enzyme buffer, which included co-factors and substrates and by adding the enzyme the reaction was initiated. After 30 min the reaction was stopped, and NO concentration was measured. The results are normalised to positive control performed without any additional compounds and are presented as percentage in inhibition. […] To test the compounds effect on iNOS a concentration range from […] 5 μM were applied ([…], 1, 10, 100 nM, 1, and 5 μM), and for testing eNOS and nNOS 1 nM and 1 μM were applied.

[2] = tested on: primary cultured microglial cells; assay: Flow cytometry-based phagocytosis assay; format: cell-based, mouse; conditions: 2.5 μM C1
Experimental: Flow cytometry-based phagocytosis assay. 10^6 primary cultured microglial cells were seeded into 3.5 cm dishes in plain medium overnight at standard conditions. The cells were treated for 1 hour with 2.5 μM C1 in DMSO, 125×10^−5 v/v DMSO respectively, or plain medium only. To stimulate microglia, LPS (1 μg/ml) was added for additional 24 hours. Fluoresbrite Carboxylate Microspheres (BrightBlue, 4.5 μm, Polyscience, Niles, USA) were coated with fetal calf serum for 30 min at room temperature, and subsequently centrifuged at 3000 g for 2 min at room temperature. The beads were resuspended in HBSS at a final concentration of 2×10^6 beads per ml. The microglia culture was washed once with HBSS (37° C.) before 1 ml bead solution was applied. The cells were incubated with the beads for 30 min at 37° C. Afterwards, microglia were washed twice with ice cold HBSS, scratched off and pulled down at 500 g for 5 min. The cells were resuspended in a propidium iodide solution (1:200 in HBSS) to stain dead cells. The stained cells were transferred to a BD LSRFortessa Flow cytometer (BD Bioscience, Sparks, USA). The median intensity of the bright blue beads was calculated using Flowlo v10 software (Ashland, USA). The data of each experiment was normalised to the unstimulated media control.

## COc1ccc(NC(=O)C(NC(=O)C2CCCN2C(=O)OCc2ccccc2)c2ccc(OC)cc2)cc1 (stereo not shown) [C1]
iNOS mRNA
  iNOS mRNA level, basal conditions: no significant effect; also recorded: did not change
iNOS mRNA; 1 μg/ml LPS 24 hours
  iNOS mRNA level after LPS stimulation: did not change mRNA significantly
[1]; 25 nM C1
  NO concentration, % of stimulated control: 66%
[1]; 250 nM C1
  NO concentration, % of stimulated control: 29%
[1]; 2.5 μM C1
  NO concentration, % of stimulated control: 25%
[1]; pre-treatment with C1
  NO release upon stimulation with PolyIC: dose dependent decrease
nNOS
  enzymatic activity of nNOS: does not interfere
[2]
  phagocytic activity, basal conditions: neither C1 nor DMSO changes microglial phagocytosis significantly; also recorded: did not alter
[2]; 1 μg/mL LPS 24 hours
  increase of phagocytosis upon LPS compared to own unstimulated control: +45%
  phagocytic activity, LPS stimulated conditions: no significant differences; also recorded: did not alter
